Non-standard residues stand in square brackets, D forms with d. Residues, ends and D or L forms follow the SMILES beside them. *: point of attachment. Tle = CC(C)(C)[C@H](N)C(=O)O; X1 = C[C@@H](CCCCCN)C(=O)*
How the values were obtained:
NTR-1 [1] = target: T1, NTR-1 (Homo sapiens, UniProt P30989); test: Functional agonism: induction of cAMP and inositol phosphate production; type: cell-based
[2] = tested on: adrenergic (alpha1, alpha 2, beta), dopamine, histamine (H1, H2, H3), muscarinic (central, peripheral), nicotinic, opioid (nonselective), orphanin, serotonin …; details: 10^−9, 10^−7 10^−5 M
rats = test: Maximum tolerated dose; details: rat, in vivo
NTR-2 [3] = target: T2, NTR-2 (Homo sapiens, UniProt O95665); test: Functional agonism: induction of cAMP and inositol phosphate production; type: cell-based
T2 sequence (O95665 whole entry, species assumed): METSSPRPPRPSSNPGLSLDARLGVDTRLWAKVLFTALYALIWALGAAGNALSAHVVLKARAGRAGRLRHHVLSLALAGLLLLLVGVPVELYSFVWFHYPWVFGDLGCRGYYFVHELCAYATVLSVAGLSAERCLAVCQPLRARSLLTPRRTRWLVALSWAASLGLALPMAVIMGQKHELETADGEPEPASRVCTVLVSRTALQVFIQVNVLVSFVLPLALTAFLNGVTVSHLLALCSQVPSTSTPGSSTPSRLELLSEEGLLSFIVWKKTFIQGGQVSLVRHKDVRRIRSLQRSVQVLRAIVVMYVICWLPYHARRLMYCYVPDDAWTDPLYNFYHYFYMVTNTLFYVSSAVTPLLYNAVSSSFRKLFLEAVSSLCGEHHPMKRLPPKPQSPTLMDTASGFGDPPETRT

Brattleboro rats = details: orally dosed
in vivo = details: rat
NTR-1 [4] = target: T1, NTR-1; test: Competitive NTR binding versus radiolabeled NT[8-13]
[5] = intra-stomach
Method: These samples were used for the determination of plasma drug by LC/MS/MS for estimating pharmacokinetic parameters and segmental absorption. The bioavailability of intra-stomach, intra-duodenum, intra-jejunum, intra-colon administration relative to intravenous administration and gavage was calculated.

NTR-2 [6] = target: T2, NTR-2; test: Competitive NTR binding versus radiolabeled NT[8-13]

T1 sequence (P30989 whole entry, species assumed): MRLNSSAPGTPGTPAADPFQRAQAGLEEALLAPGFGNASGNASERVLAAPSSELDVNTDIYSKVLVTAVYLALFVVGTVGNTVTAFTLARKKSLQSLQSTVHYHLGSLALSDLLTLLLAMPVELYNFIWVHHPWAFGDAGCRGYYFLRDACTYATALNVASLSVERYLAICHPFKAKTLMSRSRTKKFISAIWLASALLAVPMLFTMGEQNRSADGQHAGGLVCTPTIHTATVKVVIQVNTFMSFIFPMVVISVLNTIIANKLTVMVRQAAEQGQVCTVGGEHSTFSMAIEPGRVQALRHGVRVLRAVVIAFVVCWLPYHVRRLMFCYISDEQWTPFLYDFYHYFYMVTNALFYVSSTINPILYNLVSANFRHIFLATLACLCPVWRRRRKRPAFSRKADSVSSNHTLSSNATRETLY

## CC(C)C[C@H](NC(=O)[C@@H](NC(=O)[C@H](Cc1ccc(O)cc1)NC(=O)[C@@H]1CCCN1C(=O)[C@H](CCCNC(=N)N)NC(=O)[C@@H](C)CCCCCN)C(C)(C)C)C(=O)O [ABS201, hLys-Arg-Pro-Tyr-t-Leu-Leu] (X1-RPY[Tle]L-OH)
NTR-1 [1]
  Functional NTR-1 Agonist: Yes
[2]
  displacement of the receptors' endogenous substrate: No displacement
rats
  lower limit for the MTD: ≥ 100 times the ED50
NTR-2 [3]
  Functional NTR-2 Agonist: Yes
Brattleboro rats
  reversal of PPI deficit: reverses PPI
In vivo; iv
  MTD at 48 hr: ≥ 100 mg/kg
In vivo; po
  MTD at 48 hr: ≥ 500 mg/kg
NTR-1 [4]
  EC50: 3.92 ± 0.01 nM
  IC50: 11.2 ± 0.3 nM
  affinity for the target receptor (NTR1): nM affinity
  binds less effectively than its parent: 50 fold
[5]
  uptake in the stomach: Virtually no ABS201 is taken up in the stomach
NTR-2 [6]
  NTR-2 affinity: sub-micromolar
